Measurements taken from ChEMBL document CHEMBL1123187, “3-Hydroxy-3-methylglutaryl-coenzyme A reductase inhibitors. 5. 6-(Fluoren-9-yl)- and 6-(fluoren-9-ylidenyl)-3,5-dihydroxyhexanoic acids and their lactone derivatives” (J Med Chem, 1986).

Target: T1, 3-hydroxy-3-methylglutaryl-coenzyme A reductase (Rattus norvegicus) (UniProt P51639)
T1 sequence (whole entry): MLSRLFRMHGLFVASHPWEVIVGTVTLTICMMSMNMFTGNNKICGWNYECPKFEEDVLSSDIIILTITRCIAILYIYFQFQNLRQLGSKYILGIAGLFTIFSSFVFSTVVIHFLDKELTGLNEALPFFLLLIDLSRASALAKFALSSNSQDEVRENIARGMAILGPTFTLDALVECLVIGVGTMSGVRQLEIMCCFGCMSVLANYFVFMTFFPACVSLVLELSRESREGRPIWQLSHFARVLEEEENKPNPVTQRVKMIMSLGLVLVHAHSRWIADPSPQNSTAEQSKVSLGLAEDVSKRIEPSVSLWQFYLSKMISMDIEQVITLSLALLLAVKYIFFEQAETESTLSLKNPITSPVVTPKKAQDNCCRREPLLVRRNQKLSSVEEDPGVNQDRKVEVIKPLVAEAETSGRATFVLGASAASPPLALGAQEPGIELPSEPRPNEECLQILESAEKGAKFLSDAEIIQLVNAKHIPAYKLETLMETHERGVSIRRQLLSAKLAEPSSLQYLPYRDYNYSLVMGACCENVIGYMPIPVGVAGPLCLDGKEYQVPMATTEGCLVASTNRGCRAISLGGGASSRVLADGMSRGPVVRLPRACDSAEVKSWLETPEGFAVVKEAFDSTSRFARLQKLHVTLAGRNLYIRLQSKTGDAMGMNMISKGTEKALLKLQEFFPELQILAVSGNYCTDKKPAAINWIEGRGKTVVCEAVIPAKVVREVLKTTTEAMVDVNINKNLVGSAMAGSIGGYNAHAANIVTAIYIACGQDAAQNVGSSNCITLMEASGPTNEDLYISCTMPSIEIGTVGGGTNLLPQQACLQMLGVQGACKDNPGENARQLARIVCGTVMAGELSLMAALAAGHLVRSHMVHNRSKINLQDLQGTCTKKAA
Experiment: Compound was tested for its ability to inhibit solubilized, purified rat liver HMG-CoA reductase, relative to compactin(100)

Relative potency | Compound
1.7 | Cc1cc(C)c2c(c1)-c1cc(C)cc(C)c1C2=C[C@@H]1C[C@@H](O)CC(=O)O1
1.9 | Cc1cc(C)c2c(c1)-c1ccccc1/C2=C\[C@@H]1C[C@@H](O)CC(=O)O1
14 | O=C1C[C@H](O)CC(CC2c3cc(F)ccc3-c3cc(Cl)cc(Cl)c32)O1 (stereo partly specified)
1.5 | O=C1C[C@H](O)C[C@@H](C=C2c3ccccc3-c3ccccc32)O1

Target: T2, 3-hydroxy-3-methylglutaryl-coenzyme A reductase (Rattus norvegicus, UniProt P51639)
T2 sequence (P51639 whole entry): T1 sequence (whole entry)
Experiment: Compound was tested in vitro for its ability to inhibit rat liver HMG-CoA reductase

IC50 | Compound
0.83 µM | Cc1cc(C)c2c(c1)-c1cc(C)cc(C)c1C2=C[C@@H]1C[C@@H](O)CC(=O)O1
0.75 µM | Cc1cc(C)c2c(c1)-c1ccccc1/C2=C\[C@@H]1C[C@@H](O)CC(=O)O1
0.085 µM | O=C1C[C@H](O)CC(CC2c3cc(F)ccc3-c3cc(Cl)cc(Cl)c32)O1 (stereo partly specified)

Target: T1, 3-hydroxy-3-methylglutaryl-coenzyme A reductase (Rattus norvegicus)
Experiment: compound was tested for its ability to inhibit solubilized, purified rat liver HMG-CoA reductase, relative to compactin(100)

Relative potency | Compound
26 | O=C1C[C@H](O)C[C@@H](/C=C/c2c(Cl)cc(Cl)cc2-c2ccccc2)O1
80 | Cc1cc(C)cc(-c2cc(C)cc(C)c2/C=C/[C@@H]2C[C@@H](O)CC(=O)O2)c1
100 | O=C1C[C@H](O)C[C@@H](/C=C/c2c(Cl)cc(Cl)cc2-c2ccc(F)cc2)O1
0.63 | O=C1C[C@H](O)C[C@@H](/C=C/c2ccccc2-c2ccccc2)O1
